Target: T1, human recombinant CCR4 receptor (Homo sapiens, UniProt P51679)
T1 construct: Brussels, Belgium; host or cells: CHO-K1
T1 sequence (P51679 1-360): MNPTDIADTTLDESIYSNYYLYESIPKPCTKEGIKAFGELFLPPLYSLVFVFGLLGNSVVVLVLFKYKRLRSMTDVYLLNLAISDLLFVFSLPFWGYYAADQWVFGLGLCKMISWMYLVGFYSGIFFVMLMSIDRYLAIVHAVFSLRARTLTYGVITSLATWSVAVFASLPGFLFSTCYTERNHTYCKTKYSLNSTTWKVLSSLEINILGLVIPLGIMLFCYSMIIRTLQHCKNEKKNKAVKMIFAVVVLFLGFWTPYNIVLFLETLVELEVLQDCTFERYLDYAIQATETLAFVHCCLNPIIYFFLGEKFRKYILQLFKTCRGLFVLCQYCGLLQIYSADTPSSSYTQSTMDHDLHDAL
Test: FMAT Whole Cell Binding Assay (FB-MDC binding to CHO-K1 cells expressing CCR4)
Conditions: CHO-K1 cells stably expressing human recombinant CCR4; inhibition of FB-MDC fluorescent probe binding, two hours incubation at room temperature
Experimental: FMAT Whole Cell Binding Assay
CHO-K1 cells stably expressing the human recombinant CCR4 receptor (Euroscreen; Brussels, Belgium) were cultured in NUT.MIX.F—12(HAM) medium with glutamax-1, containing 10% (v/v) foetal bovine serum and 400 μg ml^−1 geneticin.
Cells were harvested at approximately 70% confluence by treatment with a cell dissociation buffer, and seeded at 5×10^3 cells/100 μl culture medium into wells of a black Costar clear-bottomed 96-well microtitre plates. Plates were incubated overnight at 37° C. in 5% CO2 and used the following day.
Before use, the cell plates were washed twice with 100 μl Hanks balanced salt solution (HBSS). To each well was then added 65 μl of HBSS, 10 μL of 10% DMSO in HBSS±test compound and then 25 μL of 2.8 nM FB-MDC (Applied Biosystems). This fluorescent probe was prepared from a 10 μM stock in 0.08% (v/v) TFA/16% (v/v) acetonitrile, diluted into HBSS.
After two hours incubation in the dark at room temperature, the plates were analysed in an FMAT8100 reader (Applied Biosystems) to measure fluorescence that was associated with binding of FB-MDC to the cells. Compound activity was determined as an pIC50 [log(concentration of compound that results in 50% inhibition)], comparing fluorescence in control and background wells.
• Fluorescence (ctrl)=1200 • Fluorescence (bkg)=0

First: COc1nc(Br)cnc1NS(=O)(=O)c1ccc(Cl)s1 [Example 1, N-(5-Bromo-3-methoxy-2-pyrazinyl)-5-chloro-2-thiophenesulphonamide]
Second: COCCOc1nc(Br)cnc1NS(=O)(=O)c1ccc(Cl)s1 [Example 16, 5-Chloro-N-[5-bromo-3-(2-methoxyethoxy)-2-pyrazinyl]-2-thiophenesulphonamide]
The IC50 of the first is 16-fold lower: 39.8 nM for the first, 631 nM for the second. The first is the more potent here.

Work on Cc1cnc(NS(=O)(=O)c2ccc(Cl)s2)c(OCc2cccnc2)n1 [Example 23, 5-Chloro-N-[5-methyl-3-(3-pyridinylmethoxy)-2-pyrazinyl]-2-thiophenesulphonamide] yielded an IC50 of 10 nM.

System: not given
Test: not given
Conditions: not given

Compared with O=S(=O)(Nc1nc(Cl)cnc1OCc1ccco1)c1ccc(Cl)s1 [Example 20, 5-Chloro-N-[6 chloro-3-(2-furanylmethoxy)-2-pyrazinyl]-2-thiophenesulphonamide], O=S(=O)(Nc1nc(Cl)cnc1OCc1ccccn1)c1ccc(Cl)s1 [Example 22] is higher in melting point: 130 to 133 °C for the first, 171 to 172 °C for the second.

First: Cc1cc(COc2ncc(Cl)nc2NS(=O)(=O)c2ccc(Cl)s2)no1 [Example 21, 5-Chloro-N-[6-chloro-3-(5-methyl-3-isoxazolylmethoxy)2-pyrazinyl]-2-thiophenesulphonamide]
Second: Cc1cnc(NS(=O)(=O)c2ccc(Cl)s2)c(OCc2cccnn2)n1 [Example 24, 5-Chloro-N-[5-methyl-3-(3-pyridazinylmethoxy)-2-pyrazinyl]-2-thiophenesulphonamide]
The melting point of the first is lower: 141 to 142 °C for the first, 179 to 181 °C for the second.

First: Cc1cnc(NS(=O)(=O)c2ccc(Cl)s2)c(OCc2cccnc2)n1 [Example 23, 5-Chloro-N-[5-methyl-3-(3-pyridinylmethoxy)-2-pyrazinyl]-2-thiophenesulphonamide]
Second: O=S(=O)(Nc1nccnc1OCc1ccccn1)c1ccc(Cl)s1 [Example 25, 5-Chloro-N-[3-(2-pyridinylmethoxy)-2-pyrazinyl]-2-thiophenesulphonamide]
The melting point of the first is higher: 204 to 205 °C for the first, 109 to 110 °C for the second.

First: COc1nccnc1NS(=O)(=O)c1ccc(Cl)s1 [Example 26, 5-Chloro-N-(3-methoxy-2-pyrazinyl)-2-thiophenesulphonamide]
Second: COc1nc(C#N)cnc1NS(=O)(=O)c1ccc(Cl)s1 [Example 31, 5-Chloro-N-[5-cyano-3-methoxy-2-pyrazinyl]-2-thiophenesulphonamide]
The melting point of the first is lower: 119 to 120 °C for the first, 218 to 219 °C for the second.

First: COc1nc(C)c(C)nc1NS(=O)(=O)c1ccc(Cl)s1 [Example 27, 5-Chloro-N-(5,6-dimethyl-3-methoxy-2-pyrazinyl)-2-thiophenesulphonamide]
Second: COc1nc(SCCN)cnc1NS(=O)(=O)c1ccc(Cl)s1 [Example 30, N-[5-{(2-Aminoethyl)sulpanyl}-3-methoxy-2-pyrazinyl]-5-chloro-2-thiophenesulphonamide]
The melting point of the first is lower: 95 to 96 °C for the first, 192 to 194 °C for the second.

From patent publication US7410972B2, “Compounds” (AstraZeneca AB, priority 2001, dated 2008)
